Test results reported in PMC4122495, “Small Molecule Deubiquitinase Inhibitors Promote Macrophage Anti-Infective Capacity” (PLoS ONE, 2014).
In brackets after ≈: the same amount, converted by molar mass.

Key:
[1] = tested on: L. monocytogenes; assay: Bacterial growth curve in BHI broth culture; format: cell-based, Listeria monocytogenes 10403S; conditions: 2.5 µM in BHI broth
Description: For bacterial growth curve in broth culture, an overnight culture of L. monocytogenes was back-diluted 1∶50 into BHI broth in the presence of 5 µM of compounds 1 to 4, 2.5 µM of compound 9 or equivalent volume of DMSO and incubated statically at 30°C for up to 8 h. At indicated time points (0, 2, 4, 6 and 8 h), a 50 µl-aliquot of bacteria was serially diluted and plated on LB agar to determine the number of CFU. To test the bactericidal properties of compound 9, an overnight culture of L. monocytogenes was back-diluted 1∶50 into BHI broth and allowed to grow at 37°C with shaking until an optical density at 600 nm (OD600) of ∼0.6–0.7 was obtained. Bacteria were then exposed to 1, 2.5 or 5 µM of compound 9 or equivalent volume of DMSO for 2 h at 4°C. After incubation, bacteria were serially diluted and plated on LB agar to determine CFU.

[2] = tested on: MNV-1; assay: MNV-1 infection of RAW264.7 cells and plaque assay; format: cell-based, murine norovirus; conditions: RAW264.7 pre-treated 0.5 h with 2.5 µM; MOI 5; 8 h infection; plaque assay
Description: RAW264.7 cells were plated at a density of 5×10^5 cells/ml in each well of a 12-well plate and allowed to attach overnight. The following day, cells were incubated with either 5 µM WP1130 or 2.5 µM compound 9, for 30 min at 37°C. After incubation, cells were placed on ice for 1 hour where they were infected with MNV-1 at an MOI of 5. Cells were then washed three times with ice-cold PBS. Cells treated with compound 9 received media alone after washing, while media containing WP1130 or DMSO was added back to cells and the infection was allowed to proceed for 8 hours. Cells were freeze-thawed twice, and viral titers were determined by plaque assay as previously described.

[3] = tested on: Norwalk virus replicon; assay: HuNoV (Norwalk virus) replicon assay in HG23 cells, qRT-PCR; format: cell-based, human norovirus; conditions: 2.5 µM for 2 hours, genomes quantitated after 24 h by qRT-PCR, normalized to DMSO
Description: HG23 cells containing the Norwalk virus replicon plasmid under G418-selection were plated at 5×10^5 cells per well in 12-well plates and allowed to attach overnight. Afterwards, media was aspirated and replaced with fresh media containing DMSO, 5 µM WP1130, or 2.5 µM compound 9. DMSO and WP1130 remained on the cells for 24 hours, whereas compound 9 was removed after 2 hours. At the end of the experiment, media was aspirated, cells were washed once with PBS and total cellular RNA was isolated using the QIAGEN RNeasy Mini kit (QIAGEN, Valencia, CA). Following the manufacturer’s protocol, RNA was subjected to two rounds of DNase treatment. First, an on-column RNase-free DNase treatment (QIAGEN, Valencia, CA) was performed for 15 minutes at room temperature. After elution, another round of DNase treatment was performed using the DNA-free DNase removal kit (Ambion, Austin, TX). RNA concentration and purity were measured using a spectrophotometer, calculating the 260/280 ratio. RNA integrity (as well as the absence of DNA contamination) was confirmed by One-Step Reverse Transcription-Polymerase Chain Reaction (RT-PCR) using “No RT” controls. Norwalk virus genomes were then quantitated by qRT-PCR as previously described.

[4] = tested on: ubiquitinated proteins (DUB activity) in RAW264.7 cells; assay: Anti-ubiquitin immunoblot of RAW264.7 whole-cell lysates; format: cell-based, murine; conditions: 2.5 µM, uninfected RAW264.7 cells, treatment 0.5 h to 6 h
Description: RAW264.7 cells were cultured at an initial density of 4×10^6 cells per 6-well plate and allowed to adhere overnight. Macrophages were treated with 2.5 µM compound 9 for the indicated period of time. To obtain whole-cell lysates, cells were lysed in cell lysis buffer (10 mM Tris pH 8, 150 mM NaCl, 1% NP-40, 10 mM EDTA pH 8, 1 mM DTT and 1X protease inhibitors), incubated for 15 min on ice and briefly sonicated. Samples were diluted in 5X concentrated sample buffer containing β-mercaptoethanol and denatured at 95°C for 10 min. The samples were separated by SDS-PAGE on an 8% acrylamide gel and transferred to polyvinyldene fluoride membrane (PVDF, Millipore). Immunodetection was performed using an anti-ubiquitin monoclonal antibody (P4D1 clone, Santa Cruz), according to manufacturer’s instructions.

[5] = Aqueous kinetic solubility; format: physicochemical
[6] = tested on: L. monocytogenes; assay: L. monocytogenes intracellular growth assay in RAW264.7 macrophages; format: cell-based, Listeria monocytogenes 10403S; parameters: decrease in Listeria intracellular viability: concentration or dose not given beside the values
Description: RAW264.7 cells were cultured at an initial density of 4×10^6 cells per 24-well plate and allowed to adhere overnight. Macrophages were treated with 2.5 or 5 µM of DUB inhibitors dissolved in dimethyl sulfoxide (DMSO) for 0.5 or 1 h or with equivalent volume of DMSO (vehicle control) at 37°C. For dose-response curves, macrophages were incubated with 5, 2.5, 1 and 0.5 µM of compounds 1, 3 and 4 or 2.5, 2, 1 and 0.5 µM of compounds 2 and 9 for 0.5 h or 1 h at 37°C. DUB inhibitors were removed from cell culture prior to infection by changing the medium. Macrophages were infected with L. monocytogenes at a multiplicity of infection (MOI) of 1 for 0.5 h at 37°C. The inoculum was removed by washing infected cells three times with Dulbecco’s phosphate-buffered saline (PBS), and the cells were incubated in medium containing 10 µg/ml of gentamicin to kill extracellular bacteria for the duration of the experiment. At 8 h post-infection, cells were lysed in 1 ml 0.1% Triton X-100, serially diluted and plated on Luria-Bertani (LB) agar to enumerate the number of colony forming units (CFU). CFU were counted using the Acolyte SuperCount (Microbiology International, Frederick, MD) plate reader and software. Results were normalized to DMSO-treated cells.
Supplementary file pone.0104096.s001.tif: Figure S1 Dose-response curves for selected compounds. RAW264.7 cells were incubated with DMSO (equivalent volume) or the varying concentrations of WP1130-derivatives for 0.5 h (compounds 1, 2, 4 and 9) or 1 h (compound 3). After incubation, the medium was removed, and cells were infected at 37°C for 0.5 h at an MOI of 1 with L. monocytogenes in the absence of additional drugs. Following the 0.5 h infection, cells were washed and gentamycin (10 µg/ml) was added to kill extracellular bacteria. Intracellular bacteria were enumerated at 8 h post-infection. The data represent percent of Listeria intracellular growth compared to DMSO-treated cells from three independent experiments performed in triplicate. Non-linear regression curves were performed using the GraphPad Prism software. (TIF) Click here for additional data file.

CCCC(NC(=O)/C(C#N)=C/c1nc(Cl)ccc1Cl)c1ccc(OCCN2CCOCC2)cc1 (stereo not shown) [Compound 9]
effect on overall CFU per ml by 8 h in broth culture [1]: did not significantly affect overall CFU per ml by 8 h
effect on growth rate in axenic broth culture ([1]; up to 8 h): modest decrease in the growth rate
decrease in MNV-1 titers compared to DMSO-treated cells [2]: more than 2.5 logs
reduction of detectable Norwalk virus genomes [3]: 84.7%
accumulation of ubiquitinated proteins (immunoblot) [4]: ubiquitinated proteins accumulated as soon as 0.5 h
solubility kinetic ([5]; aqueous (not further specified)): ~20 µM (≈ 10.1 µg/mL)
improvement in solubility vs WP1130 ([5]; compound 9 compared to WP1130): > 6 fold
EC50 ([6]; Listeria monocytogenes, RAW264.7 pre-treated with varying concentrations, then infected (MOI 1), intracellular CFU at 8 h post-infection, non-linear regression): 1.92 µM
decrease in Listeria intracellular viability ([6]; RAW264.7 pre-treated at each compound's working condition (Fig. 2B, 5B), 8 h post-infection, vs DMSO): 66.1%
Decrease intracellular listeria viability (%) ([6]; conditions of Figure 2B and Figure 5B, maximal effective drug concentration used, 8 h post-infection, vs DMSO): 66.1%
